# Laboratory results reported in US7935700B2, “Morpholine compound” (Mitsubishi Tanabe Pharma Corporation, priority 2004, dated 2011).
# Structures can show the parent of a compound that is named as a salt. Where two headings read alike, the source gives them in different places.
# Assays:
# human eosinophils = assay: Binding inhibitory test of chemokine ([125I]-eotaxin) to human eosinophils; settings: 50 pmol/L [125I]-eotaxin, 2x10^5 eosinophils, 25°C, 1 hr; read-out: IC50 (concentration of test compound necessary for decreasing binding of [125I]-eotaxin to human eosinophils by 50%)
# Description: Binding Inhibitory Test of Chemokine to Human Eosinophils
# Human eosinophils were separated by the CD16 negative selection method from anticoagulation-treated peripheral blood of healthy subject (e.g., J. Immunol. Methods, vol. 145, pages 105-110, 1991). The separated eosinophils (2×10^5 cells), 50 pmol/L[^125I]-eotaxin (2000 Ci/mmoL, manufactured by Amersham Pharmacia Biotech) and a test compounds were mixed in 0.1 mL of binding buffer (50 mmol/L HEPES, 1 mmol/L CaCl2, 5 mmol/L MgCl2, 0.5% bovine serum albumin (BSA), 0.1% sodium azide, pH 7.4), and the mixture was incubated in a multiscreen plate (manufactured by MILLIPORE) at 25° C. for 1 hr. After incubation, the reaction mixture in the multiscreen plate was filtered by vacuum manifold, and washed with 0.6 mL of a cold washing buffer (50 mmol/L HEPES, 1 mmol/L CaCl2, 5 mmol/L MgCl2, 0.5 mol/L NaCl, 0.1% sodium azide, pH 7.4), and the radioactivity maintained on the filter was measured. […] The IC50 values (concentration of test compound necessary for decreasing binding of [^125I]-eotaxin to human eosinophils by 50%) of some of the compounds of the present invention were as follows.
# CCR3 = target: T1, CCR3 (Homo sapiens, UniProt P51677); assay: Effect on intracellular calcium concentration in eosinophils upon CCL11 stimulation; type: cell-based; settings: peripheral blood eosinophils of healthy subject, agonist CCL11 1.0 nmol/L, compound 3 min before stimulation, Fura-2 AM; read-out: IC50 (50% suppression of the increase in the intracellular calcium concentration)
# T1 construct: Eosinophils separated from peripheral blood of healthy subject; endogenous in cells; host or cells: eosinophils separated from peripheral blood of healthy subject
# T1 sequence (P51677 1-355): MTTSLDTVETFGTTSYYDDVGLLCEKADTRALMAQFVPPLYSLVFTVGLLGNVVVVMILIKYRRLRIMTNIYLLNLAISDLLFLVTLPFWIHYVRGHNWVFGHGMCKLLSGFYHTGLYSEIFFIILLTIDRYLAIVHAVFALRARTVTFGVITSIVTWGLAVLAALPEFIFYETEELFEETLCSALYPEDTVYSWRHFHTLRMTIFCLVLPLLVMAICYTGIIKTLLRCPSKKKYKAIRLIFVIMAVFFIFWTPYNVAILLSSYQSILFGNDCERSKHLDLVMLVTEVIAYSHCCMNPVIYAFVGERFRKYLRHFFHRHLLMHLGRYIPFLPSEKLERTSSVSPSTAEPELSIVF
# Description: Effect on Intracellular Calcium Concentration
# The effect of the compound of the present invention on intracellular calcium mobilization in peripheral blood eosinophils of healthy subject upon CCL11 stimulation was examined by the following method.
# Eosinophils separated from peripheral blood of healthy subject were suspended in 0.5% bovine serum albumin-containing phosphate buffered saline, and incubated at 37° C. for 45 min in the presence of 5 μmol/L of Fura-2 AM (manufactured by DOJINDO LABORATORIES).
# After incubation, the cells were washed 3 times with a measurement buffer (10 mmol/L HEPES, and 0.5% bovine serum albumin-containing hanks' balanced salt solution) to remove Fura-2 AM that was not incorporated into the cells.
# Finally, the cells were adjusted to 1×10^6 cells/mL with the measurement buffer and preserved in a dark place until measurement. The intracellular calcium was measured using FDSS3000 manufactured by Hamamatsu Photonics K.K. In other words, the cell suspension (0.1 mL) loaded with Fura-2 AM was placed in a 96 well plate for measurement, the fluorescence intensity to the excitation light at wavelengths 340 nm and 380 nm was measured by FDSS3000, the ratio of the fluorescence intensity to the excitation light at these two wavelengths was determined, based on which the intracellular calcium concentration was calculated. As the agonist, used was CCL11 (1.0 nmol/L), which is a CCR3 selective ligand, and the antagonistic activity was determined as 50% suppression rate (IC50 value) of the increase in the intracellular calcium concentration, when eosinophils were treated with various concentrations of the compound of the present invention at 3 min before agonist stimulation.
# [1] = test system: mouse ovalbumin (OVA) induced allergic and biphasic ear edema; assay: Antigen (OVA) induced allergic and biphasic ear edema model; type: in vivo; settings: male BALB/c mice, oral once a day from 2 days before induction, 3 or 10 mg/kg tested
# Description: 3: Effect on Antigen Induced Allergic and Biphasic Ear Edema Model
# The in vivo effect of the compound of the present invention was examined using a mouse ovalbumin (OVA) induced allergic and biphasic ear edema model. The model was prepared according to the method of Sugawara et al. (Allergy & Clinical Immunology International, Supplement No. 2, P 785, 2000). In other words, male BALB/c mice were immunized by intraperitoneal injection with 10 μg of OVA and 1 mg of aluminum hydroxide gel (Alum). At 14 days after immunization, OVA (5 μg) were subcutaneously injected to the both ears of the mouse, whereby ear edema was induced. The thickness of the ears was measured using a dial sickness gauge immediately before subcutaneous injection and 1 and 24 hrs after subcutaneous injection of OVA. The compound of the present invention was suspended in a vehicle, 0.5% hydroxypropylmethyl cellulose solution, and orally administered at 3 mg/kg or 10 mg/kg once a day using an orally gavage needle from 2 days before ear edema induction.
# [2] = ear thickness 1 hr after OVA, read-out: Dose that showed a significant suppressive action vs vehicle, Immediate phase
# [3] = ear thickness 24 hrs after OVA, read-out: Dose that showed a significant suppressive action vs vehicle, Late phase
SMILES,IC50 (human eosinophils) [nM],IC50 (CCR3) [nM],"minimal effective dose [1, 2] [mg/kg]","minimal effective dose [1, 3] [mg/kg]"
"O=C(O)Cc1csc(SCC(=O)NC[C@H]2CN(Cc3ccc(Cl)c(Cl)c3)CCO2)n1 [Example 2, (2S)-[4-(carboxymethyl)thiazol-2-ylthio]-N-{[4-(3,4-dichlorobenzyl)morpholin-2-yl]methyl}acetamide]",2.4,1.8,3,3
"NC(=O)c1cc(-c2csc(SCC(=O)NC[C@H]3CN(Cc4ccc(Cl)c(Cl)c4)CCO3)n2)ccc1O [Example 10, (2S)-[4-(3-carbamoyl-4-hydroxyphenyl)thiazol-2-ylthio]-N-{[4-(3,4-dichlorobenzyl)morpholin-2-yl]methyl}acetamide]",2.4,–,–,–
"O=C(CSc1ccc(C(=O)O)cc1)NC[C@H]1CN(Cc2ccc(Cl)c(Cl)c2)CCO1 [Example 37, (2S)-(4-carboxyphenylthio)-N-{[4-(3,4-dichlorobenzyl)morpholin-2-yl]methyl}acetamide]",34.3,4.9,3,3
"Cc1nc(-c2csc(SCC(=O)NC[C@H]3CN(Cc4ccc(Cl)c(Cl)c4)CCO3)n2)no1 [Example 23, (2S)-N-{[4-(3,4-dichlorobenzyl)morpholin-2-yl]methyl}-[4-(5-methyl-1,2,4-oxadiazol-3-yl)thiazol-2-ylthio]acetamide hydrochloride]",1,0.8,–,–

# Second part, led by results:
IC50 (human eosinophils) [nM],IC50 (CCR3) [nM],SMILES,"minimal effective dose [1, 2] [mg/kg]","minimal effective dose [1, 3] [mg/kg]"
2.3,–,"Nc1ccc2c(c1)-c1nc(SCC(=O)NC[C@H]3CN(Cc4ccc(Cl)c(Cl)c4)CCO3)sc1C2 [Example 27, (2S)-(5-amino-8H-indeno[1,2-d]thiazol-2-ylthio)-N-{[4-(3,4-dichlorobenzyl)morpholin-2-yl]methyl}acetamide]",–,–
0.8,–,"O=C(CSc1nc(-c2ccncc2)cs1)NC[C@H]1CN(Cc2ccc(Cl)c(Cl)c2)CCO1 [Example 11, (2S)-N-{[4-(3,4-dichlorobenzyl)morpholin-2-yl]methyl}-[4-(pyridin-4-yl)thiazol-2-ylthio]acetamide]",–,–
0.4,–,"COc1ccc(-c2csc(SCC(=O)NC[C@H]3CN(Cc4ccc(Cl)c(Cl)c4)CCO3)n2)cc1OC [Example 13, (2S)-N-{[4-(3,4-dichlorobenzyl)morpholin-2-yl]methyl}-[4-(3,4-dimethoxyphenyl)thiazol-2-ylthio]acetamide]",–,–
0.9,2.5,"NC(=O)CNC(=O)c1csc(SCC(=O)NC[C@H]2CN(Cc3ccc(Cl)c(Cl)c3)CCO2)n1 [Example 17, (2S)-{4-[(2-amino-2-oxoethyl)aminocarbonyl]thiazol-2-ylthio}-N-{[4-(3,4-dichlorobenzyl)morpholin-2-yl]methyl}acetamide]",3,3
12.7,–,"Nc1cccc(-c2csc(SCC(=O)NC[C@H]3CN(Cc4ccc(Cl)c(Cl)c4)CCO3)n2)c1 [Example 9, (2S)-[4-(3-aminophenyl)thiazol-2-ylthio]-N-{[4-(3,4-dichlorobenzyl)morpholin-2-yl]methyl}acetamide]",–,–
0.4,1.6,"NC(=O)c1csc(SCC(=O)NC[C@H]2CN(Cc3ccc(Cl)c(Cl)c3)CCO2)n1 [Example 15, (2S)-(4-carbamoylthiazol-2-ylthio)-N-{[4-(3,4-dichlorobenzyl)morpholin-2-yl]methyl}acetamide]",–,–
